The record followed here is patent publication US6399672B1, “Oil soluble metal-containing compounds, compositions and methods” (Sartomer Technologies Co., Inc., priority 1999, dated 2002).

The data set can be described thus: Solubility of Zn salts in organic compounds. Particulars: mixed with organic monomers listed per example in b131-b162 (glycol di(meth)acrylates, trimethylolpropane triacrylate etc.). An excerpt: The organic compounds tested with the products of each of the preceding examples were as follows: […]

As for zinc dimethacrylate, the “solubility in organic compounds” value was “insoluble”.
